According to US20200290950A1, “ALKAMIDE COMPOUNDS AND USES THEREOF” (NORTH CAROLINA STATE UNIVERSITY, priority 2017, published 2020):

Key:
RBL-2H3 cells [1] = experiment: β-Hexosaminidase release assay (Example 3); assay type: cell-based, rat
Protocol: FIGS. 21A-21D. The inhibition of degranulation is dependent on the length of the alkamide fatty acid chain. RBL-2H3 cells were plated overnight, stimulated with 1 μM A23187 (FIG. 21A) or 5 ng/mL DNP-BSA (FIG. 21B) for 1 h in the absence or presence of each compound. Graphs display the mean percent β-hex release. Data are presented as the mean of 4 experiments. Percent inhibition of degranulation of A23187 (FIG. 21C) or DNP-BSA (FIG. 21D) using data from A and B, respectively. *P<0.05, **P<0.01, ***P<0.001, one-way ANOVA with Dunnett's post hoc test compared to vehicle (A, B) or A15 (C, D).
RBL-2H3 cells (1.0×10^5 cells) were incubated with or without 0.1 μg/mL of IgE-DNP overnight in a 96 well plate at 37° C. with 5% CO2. The cells were washed with Tyrode's buffer and assayed with few modifications (Kuehn, Radinger, & Gilfillan, 2010). Briefly, IgE-DNP sensitized cells were stimulated 1 hour with 5 ng/mL of DNP-BSA in the absence or presence of each compound and incubated at 37° C. with 5% CO2. For experiments using only A23187 as the stimulant, cells were washed with Tyrode's buffer and stimulated 1 hour with 1 μM A23187 in the absence or presence of each compound and incubated at 37° C. with 5% CO2. The stimulated cells were centrifuged at 1200×g for 5 minutes. The supernatant or cell lysate (30 μL) was incubated with 3.4 mg/mL of p-NAG (10 μL) for 1 hour at 37° C. The reaction was terminated by addition of 0.2 M sodium carbonate (pH 10) and the absorbance was read at OD405 nm on a BioTek Synergy HT microplate reader. The total 3-hexosaminidase released from the cell was calculated as the difference between the OD of the supernatant and blank plus the difference between the OD of the lysate and blank. The percent β-hexosaminidase released from the cell was calculated as the difference between the OD of the supernatant and blank divided by the total β-hexosaminidase released from the cell multiplied by 100: ODsupernatant−ODblank/[(ODlysate−ODblank)+(ODsupernatant−ODblank)]*100.

RBL-2H3 cells [2] = experiment: TNF-α ELISA, 18 hrs (Example 3); assay type: cell-based, rat; conditions: 1 μM A23187, 18 hours
Protocol: FIGS. 25A-25B. […] RBL-2H3 cells were plated overnight and stimulated with 1 μM A23187 in the absence or presence of each alkamide for 18 h. Culture supernatants were analyzed for TNF-α levels by ELISA and experiments were performed in triplicate (FIG. 25A). Percent inhibition of TNF-α secretion for each alkamide listed in FIG. 25B. *P<0.05, **P<0.01, ***P<0.001, one-way ANOVA with Dunnett's post hoc test compared to vehicle (FIG. 25A) or A15 (FIG. 25B).
RBL-2H3 cells (1.0×10^5 cells) were incubated overnight in a 24 well plate at 37° C. with 5% CO2. Cells were washed with 1×PBS and stimulated with 1 μM A23187 for 18 hrs in the absence or presence of each compound. The cells were centrifuged (1200×g, 5 min) and the supernatants were collected. The concentration of TNF-α in the supernatants were determined using the TNF-α ELISA kit.

RBL-2H3 cells [3] = experiment: Calcium assay, Fluo-4 (Example 3); assay type: cell-based, rat
Protocol: FIGS. 22A-22D. The alkamide fatty acid is necessary for inhibition of calcium influx. RBL-2H3 cells were plated overnight, incubated with Fluo-4 AM for 1 h, stimulated by 1 μM A23187 (FIG. 22A) or 5 ng/mL DNP-BSA (FIG. 22B) in the absence or presence of each alkamide, and fluorescence was read for 2 mins every 5 secs. Data are presented as the mean change in RFU of 4 experiments. Percent inhibition of calcium influx was calculated for A23187 (FIG. 22C) and DNP-BSA (FIG. 22D) stimulated cells at 2 mins. *P<0.05, **P<0.01, and ***P<0.001 one-way ANOVA with Dunnett's post hoc test compared to A15.
RBL-2H3 cells (1.0×10^5 cells) were incubated overnight in a 96 well black-wall clear bottom plate with or without IgE-DNP (0.1 μg/mL) at 37° C. with 5% CO2. The assay was performed using the Fluo-4 Direct™ Calcium Assay Kit according to the manufacturer's instruction. Briefly, cells were incubated with the Fluo-4 Direct calcium reagent loading solution for 30 minutes at 37° C. with 5% CO2 then 30 mins at room temperature. Prior to stimulation, the well baseline fluorescence was measured every 5 seconds over 1 minute using a BioTek Synergy HT microplate reader with 485/20 nm excitation and 528/20 nm emission filters. Cells were stimulated with 1 μM A23187 or 5 ng/mL DNP (IgE-DNP) in the absence or presence of each compound, and the fluorescence was measured every 5 seconds over 2 minutes. The change in fluorescence (ΔRT) was calculated as the sample fluorescence minus the baseline fluorescence for each well.

RAW 264.7 cells = conditions: LPS-stimulated RAW 264.7 cells, literature; cited from earlier work
[4] = target: cannabinoid type 2 receptor (CB2) (Homo sapiens, UniProt P34972); conditions: Raduner et al., 2006; cited from earlier work
cannabinoid type 2 receptor (CB2), sequence (P34972 whole entry, species assumed): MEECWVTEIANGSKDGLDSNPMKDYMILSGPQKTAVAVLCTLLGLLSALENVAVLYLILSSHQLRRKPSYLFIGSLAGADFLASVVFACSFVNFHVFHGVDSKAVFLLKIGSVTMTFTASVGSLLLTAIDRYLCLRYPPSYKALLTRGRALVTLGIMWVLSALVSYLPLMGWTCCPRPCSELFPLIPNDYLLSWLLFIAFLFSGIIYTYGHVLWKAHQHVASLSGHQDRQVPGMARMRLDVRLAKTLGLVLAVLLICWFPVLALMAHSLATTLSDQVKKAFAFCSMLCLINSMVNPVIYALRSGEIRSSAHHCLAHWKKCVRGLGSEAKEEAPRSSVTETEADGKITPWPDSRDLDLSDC

RBL-2H3 cells [5] = experiment: Fluo-4 calcium assay, RBL-2H3 cells (Example 1); assay type: cell-based, rat; conditions: RBL-2H3 cells, 1 μM A23187, microscopy, n=5 fields
Protocol: FIGS. 3A-3H. A15 inhibits calcium influx in RBL-2H3 cells and BMMCs. RBL-2H3 cells (FIGS. 3A-3D) and BMMCs (FIGS. 3E-3H) were plated and incubated overnight prior to treatments. For DNP-BSA treatments, overnight incubation also included 1 μg/mL IgE anti-DNP. Prior to stimulation, cells were washed and loaded with the fluorescent, calcium-sensitive dye fluo-4 AM using the Fluo-4 AM Direct™ Calcium Assay Kit and fluorescence was measured on a microplate reader. Calcium influx was triggered in all experiments using either 1 μM A23187 or 50 ng/mL DNP-BSA, as indicated. Bar graphs represent the means±SEM of the Δ in RFU's at 1 min post-A23187- or DNP-BSA-stimulation from 3 independent experiments (FIGS. 3B, 3D, 3F, 3H). Statistical analysis was performed using a one-way ANOVA with Dunnett's post-hoc test, *p<0.05, **p<0.01, ***p<0.001.
FIG. 9. A15 inhibits calcium influx in RBL-2H3 cells. Prior to stimulation, cells were washed and loaded with the fluorescent, calcium-sensitive dye fluo-4 AM using the Fluo-4 AM Direct™ Calcium Assay Kit. Cells were treated with 100 μM A15 (D, E, F), 0.25% ethanol only (vehicle) (A, B, C), 1 μM A23187 (G, H, I), and 100 μM A15 in combination with 1 μM A23187 (J, K, L) as indicated. Images were acquired at 30, 60, and 120 seconds, post-stimulation. Images are representative of several experiments.
RBL-2H3, BMMC, RAW 264.7, or Jurkat cells were plated in clear-bottom, black, 96-well plates (BioExpress, Kaysville, Utah) and incubated overnight with media only or media containing IgE anti-DNP. Cells were loaded with the calcium-sensitive dye fluo-4 AM using the Fluo-4 Direct™ Calcium Assay Kit (Thermo Fisher Scientific) according to the manufacturer's instructions by incubating at 37° C. for 30 min followed by 30 min at room temperature. Prior to stimulation, baseline fluorescent readings were measured from triplicate wells in 5 s intervals for 1 min using a Synergy HT microplate reader with 485/20 nm excitation and 528/20 nm emission filters. Cells were then treated with either 1 μM A23187 or 50 ng/mL DNP-BSA prepared in calcium- and magnesium-containing or calcium- and magnesium-free HBSS with 20 mM HEPES, and fluorescence was measured in 10 s intervals for 2 min. The final concentration of ethanol was 0.25% in these assays. The average baseline fluorescence of each well was subtracted from the stimulated fluorescent values to calculate the change (Δ) in RFU's and graphed as shown.
Cells loaded with fluo-4 were treated and observed with an Axioskop 2 microscope (Zeiss, Oberkochen, Germany) using a fluorescent illuminator HXP-120 light source and images were acquired at 30, 60, or 120 sec after stimulation with a AxioCam MRc5 camera (Zeiss) and AxioVision software (Zeiss).

Row | SMILES | percent inhibition of degranulation (RBL-2H3 cells [1]; 5 ng/mL DNP-BSA, 1 hour) [%] | percent inhibition of degranulation (RBL-2H3 cells [1]; 1 μM A23187, 1 hour) [%] | percent inhibition of TNF-α secretion (RBL-2H3 cells [2]) [%] | percent inhibition of calcium influx (RBL-2H3 cells [3]; 5 ng/mL DNP-BSA, at 2 minutes) [%] | further results
1 | CCCCCCCCCCCC(=O)NCC(C)C [YM5-27, N-Isobutyldodecanamide] | 33 | 40 | 76 | 65 | percent inhibition of calcium influx (RBL-2H3 cells [3]; 1 μM A23187, at 2 minutes): 79%; TNF-α production (RAW 264.7 cells): best inhibitors
2 | C/C=C\C=C/CC/C=C/C=C/C(=O)NCC(C)C [A11a/b, dodeca-2E,4E,8Z,10Z(E)-tetraenoic acid isobutylamide, reference compound] |  |  |  |  | binding to CB2 [4]: shown to bind; TNF-α production (RAW 264.7 cells): reduced TNF-α production
3 | CCCC(=O)NCC(C)C [YM8-87, N-Isobutylbutyramide] | 12 | 11 |  |  | rank as inhibitor of calcium influx (RBL-2H3 cells [3]; A23187 and DNP-BSA stimulation): least effective inhibitor of calcium influx
4 | CCN(CC)CCCCCCCCOC(=O)c1cc(OC)c(OC)c(OC)c1 [TMB-8, 3,4,5-trimethoxybenzoic acid 8-(diethylamino) octyl ester, reference compound] |  |  |  |  | β-hex release (RBL-2H3 cells [1]; 5 ng/mL DNP-BSA, 1 h): also inhibited; β-hex release (RBL-2H3 cells [1]; 1 μM A23187, 1 h): significantly inhibited β-hex release; calcium response (Fluo-4 fluorescence over 2 min) (RBL-2H3 cells [3]; 5 ng/mL DNP-BSA): decreased rate of calcium entering the cytosol; calcium response (Fluo-4 fluorescence over 2 min) (RBL-2H3 cells [3]; 1 μM A23187): decreased rate of calcium entering the cytosol
5 | CCCCCC(=O)NCC(C)C [YM5-47, N-Isobutylhexanamide] | 36 | 51 | 47 | 38 | 
6 | CNc1ccc2oc(C[C@H]3O[C@@]4(CC[C@H]3C)O[C@H]([C@H](C)C(=O)c3ccc[nH]3)[C@H](C)C[C@H]4C)nc2c1C(=O)O [A23187, reference compound] |  |  |  |  | increase in fluorescence (pixel intensity) (RBL-2H3 cells [5]): 158.4%
7 | CCCCCCCCCC(=O)NCC(C)C [YM8-86, N-Isobutyldecanamide] | 46 | 59 | 50 | 40 | percent inhibition of calcium influx (RBL-2H3 cells [3]; 1 μM A23187, at 2 minutes): 92%
